# Where two headings read alike, the source gives them in different places.
# T1: NOGO-A (Homo sapiens, UniProt Q9NQC3)
# T1 construct: host or cells: ALS patients (clinical trials cited from the literature)
# T1 sequence (Q9NQC3 1-1192): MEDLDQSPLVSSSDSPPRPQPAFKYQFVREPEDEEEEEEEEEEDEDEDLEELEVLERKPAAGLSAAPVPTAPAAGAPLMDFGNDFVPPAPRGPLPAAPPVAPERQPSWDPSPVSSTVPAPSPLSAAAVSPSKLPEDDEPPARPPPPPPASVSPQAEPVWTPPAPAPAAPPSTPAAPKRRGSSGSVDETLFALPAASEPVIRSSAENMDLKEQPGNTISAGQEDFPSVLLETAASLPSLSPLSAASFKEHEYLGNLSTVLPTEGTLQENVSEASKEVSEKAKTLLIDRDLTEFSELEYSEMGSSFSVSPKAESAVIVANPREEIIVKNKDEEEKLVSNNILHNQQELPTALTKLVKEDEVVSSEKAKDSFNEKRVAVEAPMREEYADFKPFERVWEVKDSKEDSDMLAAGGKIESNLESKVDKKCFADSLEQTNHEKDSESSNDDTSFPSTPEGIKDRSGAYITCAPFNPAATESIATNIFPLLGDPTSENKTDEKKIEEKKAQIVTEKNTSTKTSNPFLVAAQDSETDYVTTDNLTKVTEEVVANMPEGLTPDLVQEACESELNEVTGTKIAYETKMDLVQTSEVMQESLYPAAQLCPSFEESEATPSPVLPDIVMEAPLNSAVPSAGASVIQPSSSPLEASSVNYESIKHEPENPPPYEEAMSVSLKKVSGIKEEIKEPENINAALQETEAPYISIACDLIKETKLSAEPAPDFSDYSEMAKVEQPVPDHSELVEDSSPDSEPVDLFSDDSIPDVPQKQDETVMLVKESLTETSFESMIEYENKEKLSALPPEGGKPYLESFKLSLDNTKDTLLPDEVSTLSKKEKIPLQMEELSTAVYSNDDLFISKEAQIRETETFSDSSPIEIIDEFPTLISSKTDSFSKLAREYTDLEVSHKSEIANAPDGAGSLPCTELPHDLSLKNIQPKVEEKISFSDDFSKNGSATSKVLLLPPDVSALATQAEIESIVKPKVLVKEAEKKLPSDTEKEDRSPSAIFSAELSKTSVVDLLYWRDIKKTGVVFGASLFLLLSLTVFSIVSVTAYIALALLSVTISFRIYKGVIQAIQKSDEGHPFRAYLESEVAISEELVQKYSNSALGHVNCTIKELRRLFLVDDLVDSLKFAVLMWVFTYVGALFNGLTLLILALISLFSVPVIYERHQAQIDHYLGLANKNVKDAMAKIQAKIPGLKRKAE
# Columns and labels:
# CTXLP = assay: Endogenous CTXLP in SVGA astrocytes treated with gambogic acid; assay type: cell-based, human; conditions: SVGA cells, gambogic acid 0.25 and 0.5 μM
# Procedure: FIG. 57 depicts that endogenous levels of CTXLP in human astrocytes can be depleted in the presence of gambogic acid. Human astrocytic cell line SVGA were treated with increasing doses of gambogic acid in the low micromolar range (0.25 and 0.5 μM).
# NOGO-A [1] = conditions: ReNcell CX neurospheres, 24 hours, 1 ng/ml TNFα; for TNFα-induced NOGO-A expression in human neurospheres: 0.5 μM GA
# Procedure: (§1) The ReNcell CX neuroprogenitor cell line was grown in suspension to produce human neurospheres (approximately 0.5 mm diameter). Neurospheres were treated for 24 hours in neurobasal media alone, or with or without 1 ng/ml TNFα and/or 0.5 μM gambogic acid (GA). Cells were collected, protein extracted, and western blot performed to measure the expression of soluble (standard lysis) and insoluble (RIPA lysis) proteins for ERVK CTXLP, CaV2.2 C-terminal calcium channel-associated transcriptional regulator (CaV2.2 CCAT) and NOGO-A, as compared to β-actin loading control.
# NOGO-A [2] = conditions: 24 hours, GA 0.1, 0.25, 1 and 2.5 μM
# Procedure: The ERVK-expressing NCCIT teratocarcinoma cell line was grown in a monolayer in RMPI 1640 media supplemented with FetalGro. Cells were treated for 24 hours with increasing doses of gambogic acid (GA, 0.1, 0.25, 1 and 2.5 μM). Cells were collected, protein extracted, and western blot performed to measure the expression of ERVK CTXLP, CaV2.2 C-terminal calcium channel-associated transcriptional regulator (CaV2.2 CCAT) and NOGO-A, as compared to β-actin loading control.
# ERVK CTXLP [3] = conditions: ReNcell CX neurospheres, 24 hours, 1 ng/ml TNFα; for TNFα-induced CTXLP expression in human neurospheres: 0.5 μM GA
# Procedure: as §1
# CaV1.2 CCAT = conditions: 2.5 mM EGTA; 65 mM KCI; 100 μM glutamate; cited from earlier work
# [4] = test system: interferon response elements (ISREs) within the ERVK promoter (5′ LTR); assay type: binding, human
# ERVK CTXLP [5] = conditions: ReNcell-derived neurons, 24 hours, n=1
# Procedure: ReNcell-derived neurons were treated with increasing doses of pro-inflammatory cytokines TNFα or LIGHT for 24 hours.
# NOGO-A [6] = target: T1, NOGO-A; conditions: patients with ALS, intravenous infusions; cited from earlier work
# [7] = test system: CaV2.2 calcium channel-associated transcription regulator (CCAT); assay type: cell-based, human
# NF-κB p65 [8] = assay type: cell-based
# [9] = test system: NF-κB p65 and p50 proteins; assay type: cell-based, human
# IRF7 = assay type: cell-based
# NF-κB p65 [10] = assay type: cell-based; remark: listed apart in the source
molecule,measurement,setting,value
"CC(C)=CCC[C@]1(C)C=Cc2c(O)c3c(c(CC=C(C)C)c2O1)O[C@]12C(=C[C@@H]4C[C@H]1C(C)(C)O[C@@]2(C/C=C(/C)C(=O)O)C4=O)C3=O [Gambogic acid, gambogic acid]",endogenous levels of CTXLP in human astrocytes,CTXLP,depleted
same,TNFα-induced NOGO-A expression in human neurospheres,NOGO-A [1]; listed as GA,blocked
same,TNFα-induced NOGO-A expression in human neurospheres,NOGO-A [1]; listed as gambogic acid,ameliorate
same,NOGO-A expression in NCCIT cells,NOGO-A [2],potent inhibitor of Nogo-A
same,NOGO-A expression in NCCIT cells,NOGO-A [2]; listed as GA,dose-dependently reduces
same,TNFα-induced CTXLP expression in human neurospheres,ERVK CTXLP [3],blocks
same,TNFα-induced CTXLP expression in human neurospheres,ERVK CTXLP [3]; listed as gambogic acid,reduce inducible CTXLP expression
O=C(O)CN(CCOCCOCCN(CC(=O)O)CC(=O)O)CC(=O)O [EGTA],CaV1.2 CCAT nuclear localization / nuclear CCAT levels in neurons,CaV1.2 CCAT,promote
TNFα,CTXLP chromatin binding on cytokine stimulation,[4],Notable increase
same,NOGO-A expression in neurospheres on TNFα,NOGO-A [1],enhances
same,CTXLP expression in neurospheres on TNFα,ERVK CTXLP [3],enhances
same,cytokine dose giving optimal enhancement of CTXLP expression (90 kDa form),ERVK CTXLP [5],1 ng/mL
[Ca+2].[Cl-].[Cl-] [calcium chloride],caspase-3 expression in CTXLP-treated SVGA cells in the presence of excess calcium,SVGA cells,blocked
N[C@@H](CCC(=O)O)C(=O)O [glutamate],CaV1.2 CCAT nuclear localization / nuclear CCAT levels in neurons,CaV1.2 CCAT,decreased nuclear CCAT levels
[Cl-].[K+] [KCI],CaV1.2 CCAT nuclear localization / nuclear CCAT levels in neurons,CaV1.2 CCAT,decreased nuclear CCAT levels
"LIGHT: lymphotoxin-like inducible member of the TNF superfamily protein, pro-inflammatory cytokine (protein, UniProt O43557 83-240, looked up) Tumor necrosis factor ligand …: LIQERRSHEVNPAAHLTGANSSLTGSGGPLLWETQLGLAFLRGLSYHDGALVVTKAGYYYIYSKVQLGGVGCPLGLASTITHGLYKRTPRYPEELELLVSQQSPCGRATSSSRVWWDSSFLGGVVHLEAGEKVVVRVLDERLVRLRDGTRSYFGAFMV",cytokine dose giving optimal enhancement of CTXLP expression (90 kDa form),ERVK CTXLP [5],10 ng/mL
"Ozanezumab: human anti-Nogo-A antibody from GlaxoSmithKline (antibody, chains of the INN, looked up, V domains shown) VH: QVQLVQSGAEVKKPGASVKVSCKASGYTFTSYWMHWVRQAPGQGLEWIGNINPSNGGTNYNEKFKSKATMTRDTSTSTAYMELSSLRSEDTAVYYCELMQGYWGQGTLVTVSS VL: DIVMTQSPLSNPVTLGQPVSISCRSSKSLLYKDGKTYLNWFLQRPGQSPQLLIYLMSTRASGVPDRFSGGGSGTDFTLKISRVEAEDVGVYYCQQLVEYPLTFGQGTKLEIK",outcome of Phase II clinical ALS trials,NOGO-A [6],negative results
"ERVK SU: ERVK envelope surface unit protein devoid of the CTXLP domain (SEQ ID NO: 3) (protein, Endogenous retrovirus K (from homo sapiens)) MNPSEMQRKAPPRRRRHRNRAPLTHKMNKMVTSEEQMKLPSTKKAEPPTWAQLKKLTQLATKYLENTKVTQTPESMLLAALMIVSMVVSLPMPAGAAAANYTYWAYVPFPPLIRAVTWMDNPIEIYVNDSVWVPGPTDDCCPAKPEEEGMMINISIGYRYPPICLGRAPGCLMPAVQNWLVEVPTVSPISRFTYHMVSGMSLRPRVNYLQDFSYQRSLKFRPKGKPCPKEIPKESKNTEVLVWEECVANSAVILQNNEFGTLIDWAPRGQFYHNCSGQTQSCPSAQVSPAVDSDLTESLDKHKHKKLQSFYPWEWGEKGISTARPKIISPVSGPEHPELWRLTVASHHIRIWSGNQTLETRDRKPFYTIDLNSSLTVPLQSCVKPPYMLVVGNIVIKPDSQTITCENCRLLTCIDSTFNWQHRILLVRAREGVWIPVSMDRPWEASPSVHILTEVLKGVLNRSKR",CaV2.2 CCAT (75 kDa) expression in SVGA cells,[7],not
same,continued replication / cell density at later time points,SVGA cells,able to continue to replicate
same,NF-κB p65 protein expression,NF-κB p65 [8],unable
same,NF-κB p65 and p50 protein expression,[9],not
same,mRNA expression of IRF7,IRF7,neither protein was able to trigger an upregulation
same,mRNA expression of NF-κB p65,NF-κB p65 [10],marked increase
